# Results: US20250340593A1, “METHOD AND COMPOSITION FOR TREATING NEURODEGENERATIVE DISORDER” (priority 2022, published 2025)
# Residues, ends and D or L forms follow the SMILES beside them.
# Key:
# AB40 monomers (Aβm) = target: T1, AB40 monomers (Aβm) (Homo sapiens, UniProt P05067); assay: Indirect ELISA, binding of coated peptide to biotinylated Aβ40 monomers
# T1 construct: synthetic biotinylated Aβ42 oligomers (Aβo) or AB40 monomers (Aβm); purchased Bachem; host or cells: chemical synthesis
# Protocol: (§1) The binding of the CP or BP to synthetic biotinylated Aβ42 oligomers (Aβo) or AB40 monomers (Aβm) was determined by indirect ELISA in which the CP or BP were used as the capture antigens and the biotin tag of the biotinylated Aβ peptides for the detection. 96-well clear polystyrene microplate (BioTechne DY990) were coated overnight at 4° C. with 5 μM of the CP or BP in PBS, pH 7.4. After immobilization, the plate was washed three times with PBS 0.05% Tween 20 and various concentrations of biotinylated Aβ peptides were added in triplicate from 0.1 μg.mL-1 to 10 μg.mL-1 (21 nM to 2.1 μM for Aβo (42), 22 nM to 2.2 μM for Aβm (40) and incubated for 2 h at RT. After additional washes with PBS 0.05% Tween 20, HRP-conjugated streptavidin (1/40) was added for 20 min at RT, followed by a washing step and an incubation in substrate solution containing 3,3′,5,5′-Tetramethylbenzidine (TMB) and H2O2. The reaction was stopped by H2SO4. Absorbance was successively measured at 450 and 540 nm with a TECAN microplate reader and optical density values at 540 nm were subtracted from the ones at 450 nm to correct for optical imperfections of the plate. Unspecific Aβ binding to the microplate was determined using non-coated wells.
# monomeric Aβ42 = target: T2, monomeric Aβ42 (Homo sapiens, UniProt P05067); assay: Thioflavin-T assay of Aβ42 aggregation kinetics; type: biochemical; details: for inhibition of fibril formation (normalized ThT fluorescence): 15 μM monomeric Aβ, equimolar peptide, 24 hours; for ThT fluorescence of peptide alone: highest concentration of peptide alone, no Aβ
# T2 construct: purchased Bachem; host or cells: chemical synthesis
# Protocol: Thioflavin-T (ThT) assays were performed in black polystyrene 384-well plates with transparent bottom using a Tecan microplate reader with a set of excitation/emission wavelengths of 450/490 nm. Monomeric Aβ42 was prepared as described above and blocking or control peptides (BP ou CP) were used at indicted concentrations, ranging from 0.5 to 15 μM. The final concentration of ThT and monomeric AB42 was used at 15 μM in PBS buffer (pH 7.4), with a total reaction volume per well of 110 μL. The plate was sealed with a transparent plastic film and incubated at 37° C. prior to fluorescence measurement. ThT fluorescence intensity was monitored every 5 min over 24 h at 37° C. without agitation. Three replicates per condition were measured.
# Aβ preparation (30 μM) = target: T3, Aβ preparation (30 μM) (Homo sapiens, UniProt P05067); assay: Transmission electron microscopy of Aβ aggregates; details: for morphology of Aβ aggregates by TEM: Aβ 30 μM with equimolar peptide, 24 h
# T3 construct: purchased Bachem; host or cells: chemical synthesis
# Protocol: Prior to imaging, 10 μL of an Aβ preparation (30 μM) aggregated for 24 h at 37° C. in the presence or absence of equimolar concentration of the CP or BP were deposited onto Formvar-C coated mesh nickel grids. After a 10 min incubation step at RT, grids were rinsed with sterile dH20. Samples were subsequently stained using 5% uranyl acetate for 1 minute in the dark to increase contrast and were allowed to air dry for 2 minutes. Finally, they were visualized with a JEM 1400 Transmission Electron Microscope (Jcol Tokyo, Japan), operating at 120 kV, initially imaged at low magnification (20,000X), and thereafter at 120,000X using a Gatan Orius 1000 digital micrograph software.
# [1] = target: T4, Aβo-VEGF interaction (recombinant human VEGF165) (Homo sapiens, UniProt P05067); assay: Competitive ELISA of Aβo binding to immobilized VEGF; details: for inhibition of the binding of Aβo to VEGF: biotinylated Aβ42 oligomers 2.1 μM, peptide 10 nM to 100 μM
# T4 construct: purchased Bachem
# Protocol: Competitive ELISA experiments were performed to analyze the ability of the BP to impede AB42 oligomers binding to VEGF. For these assays, recombinant human VEGF165 (500 ng/ml-1) was immobilized in the 96-well microplate as the capture antigen and incubated overnight at 4° C. The following day, biotinylated AB42 oligomers were precubated at 2.1 μM for 1 h at RT with various concentrations of the CP or BP ranging from 10 nM to 100 μM. After 3 rinces with PBS 0.05% Tween 20, the mix was added in triplicate and incubated for 2 h at RT. Next, a washing step was performed followed by an incubation with the HRP-conjugated streptavidin for 20 min, additional rinces and finally the substrate solution containing TMB and H2O2. Absorbance was measured using a TECAN microplate reader.
# Aβ42 oligomers (Aβo) = target: T5, Aβ42 oligomers (Aβo) (Homo sapiens, UniProt P05067); assay: Indirect ELISA, binding of coated peptide to biotinylated Aβ42 oligomers; details: peptide coated at 5 μM
# T5 construct: purchased Bachem; host or cells: chemical synthesis
# Protocol: as §1
# [2] = target: T6, biotinylated Aβ42 oligomers (Aβo (42)) (Homo sapiens, UniProt P05067); assay: Peptide array probed with biotinylated Aβ42 oligomers; type: binding; details: biotinylated Aβo 0.1 to 10 μg.mL-1, BP result at the lowest concentration (0.1 μg/ml-1)
# T6 construct: purchased Bachem; host or cells: chemical synthesis
# Protocol: In the context of the invention, cellulose-bound peptide arrays encompassing the heparin binding domain and the C-terminal human VEGF sequence (UniProtKB #P15692) were synthesized by Proteomic Solutions. Overlapping 15-mer peptides were shifted by 3 aa and two copies of the same array were spotted on the slide for quality control and reproducibility. Arrays were blocked for 2 h in Tris buffered saline, 1% Tween 20, 5% BSA to prevent unspecific binding, and were subsequently probed for 15 h at 4° C. with biotinylated AB42 oligomers (Aβo (42)) using concentrations varying from 0.1 to 10 μg.mL-1 or vehicle used as a control. After washing in TBS 1% Tween 20, peptide arrays were incubated with HRP-conjugated Streptavidin for 2 h at RT. Aβo interaction was detected using SuperSignal West Pico PLUS chemiluminescent substrate and non-specific Aβ binding was determined using the control peptide (CP) spotted on the peptide array. […]
# Cellulose-bound peptide arrays encompassing the heparin binding domain and the C-terminal human VEGF sequence (UniProtKB #P15692) were synthesized by Proteomic Solutions. […] Aβo interaction was detected using SuperSignal West Pico PLUS chemiluminescent substrate and non-specific Aβ binding was determined using the control peptide (CP) spotted on the peptide array. […]
# T4 sequence (P05067 672-713 limits assumed): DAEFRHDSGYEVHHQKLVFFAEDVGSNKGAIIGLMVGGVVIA
# T3 sequence (P05067 672-713 limits assumed): as above
# T2 sequence (P05067 672-713 limits assumed): as above
# T6 sequence (P05067 672-713 limits assumed): as above
# T5 sequence (P05067 672-713 limits assumed): as above
# T1 sequence (P05067 672-711 limits assumed): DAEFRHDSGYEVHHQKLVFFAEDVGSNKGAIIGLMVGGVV
Compound,Kd (AB40 monomers (Aβm)),inhibition of fibril formation (normalized ThT fluorescence) (monomeric Aβ42),ThT fluorescence of peptide alone (monomeric Aβ42),"steepness of the exponential phase corresponding to Aβ42 nucleation (monomeric Aβ42; peptide 0.5 to 15 μM, 15 μM Aβ42)",morphology of Aβ aggregates by TEM (Aβ preparation (30 μM)),self-assembly structures of peptide alone by TEM (Aβ preparation (30 μM)),Ki [1],inhibition of the binding of Aβo to VEGF [1],Kd (Aβ42 oligomers (Aβo); ELISA titration binding curves),labeling of peptide spot by biotinylated Aβo [2],"binding to Aβm (AB40 monomers (Aβm); ELISA, peptide coated at 5 μM)",binding to Aβo (Aβ42 oligomers (Aβo); ELISA)
"CC(C)[C@H](NC(=O)[C@H](Cc1ccc(O)cc1)NC(=O)[C@@H](NC(=O)[C@H](CO)NC(=O)[C@H](Cc1c[nH]c2ccccc12)NC(=O)[C@H](CO)NC(=O)[C@H](CCCCN)NC(=O)[C@H](Cc1ccc(O)cc1)NC(=O)[C@H](CCCNC(=N)N)NC(=O)[C@H](CO)NC(=O)[C@H](CCCCN)NC(=O)[C@H](CCCCN)NC(=O)[C@H](CCCNC(=N)N)NC(=O)[C@@H](N)CCCCN)C(C)C)C(=O)NCC(=O)O [BP, KRKKSRYKSWSVYVG] (H-KRKKSRYKSWSVYVG-OH; N-terminus and C-terminus assumed)",19000 nM,95%,does not induce any increase in ThT fluorescence,decreases with increasing concentrations,mainly non-fibrillar and amorphous in shape,does not induce any 3-dimensional self-assembly structures,340 nM,clear dose-dependent reduction,12 nM,clear staining,,
"NDYKDDDDKGAAA [CP, reference compound]",,no significant effect,does not induce any increase in ThT fluorescence,,characteristic twisted morphology,does not induce any 3-dimensional self-assembly structures,,did not inhibit,,no labelling,fails to bind,fails to bind
